In PubChem BioAssay (NCI):
“And” between values parts separate entries of the source, which are not always exact repeats. Equal values may be shown once.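 48-hour exposure; five concentrations; linearly interpolated endpoints. GI50 marks 50% less growth. TGI: concentration producing complete growth inhibition.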

How the values were obtained:
Assay in all cases: inhibition of tumour cell growth, NCI panel, 48 h
[1] = test system: 786-0 renal
[2] = test system: COLO 205 colon
[3] = test system: DU-145 prostate
[4] = test system: HT29 colon
[5] = test system: IGROV1 ovarian
[6] = test system: K-562 leukemia
[7] = test system: MDA-MB-231 breast
[8] = test system: MOLT-4 leukemia
[9] = test system: NCI-H522 lung
[10] = test system: OVCAR-5 ovarian
[11] = test system: PC-3 prostate
[12] = test system: SF-268 CNS
[13] = test system: SK-MEL-28 melanoma
[14] = test system: UACC-62 melanoma

SMILES | TGI [1] | TGI [2] | TGI [3] | TGI [4] | TGI [5] | TGI [6] | TGI [7] | TGI [8] | TGI [9] | TGI [10] | TGI [11] | TGI [12] | TGI [13] | TGI [14] | GI50 [4] | GI50 [5] | GI50 [9] | GI50 [12] | GI50 [10] | GI50 [14]
CSS(C)(=O)=O | > 100 µM | 40.1 µM | 45.9 µM | > 100 µM | 45.2 µM | 78.6 µM | > 100 µM | 10.1 µM | 37.1 µM | 49.1 µM | 48.7 µM | 96.9 µM | 48 µM | 42.3 µM | – | – | – | – | – | –
ClCCc1ccccc1CC1=NCCc2ccccc21 | > 100 µM | 63.5 µM | > 100 µM | 46.3 µM | > 100 µM | > 100 µM | 96.2 µM | > 100 µM | 44 µM | > 100 µM | > 100 µM | > 100 µM | > 100 µM | 98.9 µM | – | – | – | – | – | –
CC1(C)CC[C@]2(C(=O)O)CC[C@]3(C)C(=CC[C@@H]4[C@@]5(C)CC[C@H](OC6OC(CO)C(O)C(O)C6O)C(C)(C)[C@@H]5CC[C@]43C)[C@@H]2C1 (stereo partly drawn) | 3.23 µM | 3.21 µM | 4.49 µM | 2.98 µM | 3.06 µM | 3.67 µM | 3.07 µM | 4.55 µM | 2.91 µM | 4.12 µM | 2.96 µM | 3.51 µM | 3.69 µM | 3.28 µM | – | – | – | – | – | –
COc1c2occc2cc2ccc(=O)oc12 | > 100 µM | > 100 µM | > 100 µM | > 100 µM | > 100 µM | > 100 µM | > 100 µM | > 100 µM | > 100 µM | > 100 µM | > 100 µM | > 100 µM | > 100 µM | > 100 µM | > 100 µM | > 100 µM | > 100 µM | > 100 µM | – | –
CCSc1nc(C)nc2c1sc1nc3ccccc3n12 | > 100 µM | > 100 µM | > 100 µM | > 100 µM | > 100 µM | > 100 µM | > 100 µM | > 100 µM | > 100 µM | > 100 µM | > 100 µM | > 100 µM | > 100 µM | > 100 µM | – | – | – | – | – | –
O=P(O)(O)CC1OC(CO)C(O)C1O (stereo not drawn) | > 100 µM | > 100 µM | > 100 µM | > 100 µM | > 100 µM | > 100 µM | > 100 µM | > 100 µM | > 100 µM | > 100 µM | > 100 µM | > 100 µM | > 100 µM | > 100 µM | – | – | – | – | – | –
C=C(C)C1CC2=C(O1)C(=O)c1cccc(O)c1C2=O (stereo not drawn) | > 100 µM | 3.25 µM | 3.15 µM | 3.13 µM | 0.617 µM | 0.689 µM | 3.64 µM | 0.422 µM | 1.73 µM | 3.01 µM | 3.67 µM | 1.47 µM | 3.33 µM | 2.18 µM | – | – | – | – | – | –
COC(=O)C1(Cc2ccc(C)cc2)Cc2c(C)cccc2C1=O (stereo not drawn) | 76.8 µM | 33.4 µM | 72 µM | 34.2 µM | > 100 µM | > 100 µM | > 100 µM | > 100 µM | 42.1 µM | > 100 µM | 42 µM | > 100 µM | > 100 µM | 92 µM | – | – | – | – | – | –
OC1(C2(c3ccc(Cl)cc3)CCCC2)c2ccccc2C2=NCCN21 (stereo not drawn) | 27.3 µM | 23.9 µM | 16.3 µM | 23.5 µM | 26.8 µM | 20.4 µM | 29.6 µM | 32.2 µM | 32.3 µM | 29.5 µM | 25.1 µM | 35.1 µM | 31 µM | 29.7 µM | – | – | – | – | – | –
COc1ccc(NC(=S)Nc2c(C)n(C)n(-c3ccccc3)c2=O)cc1 | > 100 µM | > 100 µM | > 100 µM | > 100 µM | > 100 µM | > 100 µM | > 100 µM | > 100 µM | > 100 µM | > 100 µM | > 100 µM | > 100 µM | > 100 µM | > 100 µM | – | – | – | – | – | –
CCCCN1CCC(O)(c2cc(C(=O)O)[nH]c2-c2cc(C)no2)C1=O (stereo not drawn) | > 100 µM | > 100 µM | > 100 µM | > 100 µM | > 100 µM | > 100 µM | > 100 µM | > 100 µM | > 100 µM | > 100 µM | > 100 µM | > 100 µM | > 100 µM | > 100 µM | – | – | – | – | – | –
COc1ccc(-c2nc(SC)n(C3OC(COC(C)=O)C(OC(C)=O)C(OC(C)=O)C3OC(C)=O)c(=O)c2C#N)cc1 (stereo not drawn) | > 100 µM | > 100 µM | > 100 µM | > 100 µM | > 100 µM | > 100 µM | > 100 µM | > 100 µM | 72.7 µM and > 100 µM | > 100 µM | > 100 µM | > 100 µM | > 100 µM | > 100 µM | – | – | 18.7 µM and > 100 µM | 21.8 µM and 76.4 µM | > 100 µM | 40.5 µM and > 100 µM
C=CC(C)(C)n1cc(C2=C(O)C(=O)C(c3c(CC=C(C)C)[nH]c4ccccc34)=C(O)C2=O)c2ccccc21 | 6.97 µM | 3.23 µM | 5.46 µM | 7.36 µM | 2.45 µM | 5.02 µM | 7.78 µM | 9.51 µM | 6.18 µM | 10.1 µM | 4.78 µM | 5.13 µM | 2.03 µM | 1.18 µM | – | – | – | – | – | –
C[C@H](CO)C1=CC(C#C[Si](C)(C)C)N(C(=O)Oc2ccccc2)c2ccccc21 (stereo partly drawn) | 27.2 µM | 24.3 µM | 31.7 µM | 20.5 µM | 29.9 µM | > 100 µM | 23.4 µM | 44 µM | 15.7 µM | 30.5 µM | 24 µM | 27.6 µM | 37.5 µM | 19.9 µM | – | – | – | – | – | –
Clc1nc(Nc2nc3ccccc3[nH]2)nc(Cl)c1-c1ccccc1 | 34.6 µM | 51.3 µM | > 100 µM | 34.9 µM | 54.2 µM | > 100 µM | 29.1 µM | > 100 µM | 42.5 µM | 59.6 µM | 60.1 µM | > 100 µM | 27 µM | 36.9 µM | – | – | – | – | – | –
Nc1ncnc2c1cnn2COCC(O)CO (stereo not drawn) | > 100 µM | > 100 µM | > 100 µM | > 100 µM | > 100 µM | > 100 µM | > 100 µM | > 100 µM | > 100 µM | > 100 µM | > 100 µM | > 100 µM | > 100 µM | > 100 µM | – | – | – | – | – | –
Cc1ccc2c(=O)c(C(=O)NNC(=S)NC3CCCCC3)c[nH]c2n1 | > 100 µM | > 100 µM | > 100 µM | > 100 µM | > 100 µM | > 100 µM | > 100 µM | > 100 µM | > 100 µM | > 100 µM | > 100 µM | > 100 µM | > 100 µM | > 100 µM | – | – | – | – | – | –
NS(=O)(=O)c1ccc(N2C(=O)C(=O)N(c3ccccc3)C2=S)cc1 | > 100 µM | > 100 µM | > 100 µM | > 100 µM | > 100 µM | > 100 µM | > 100 µM | > 100 µM | > 100 µM | > 100 µM | > 100 µM | > 100 µM | > 100 µM | > 100 µM | – | – | – | – | – | –
COC(=O)C1SC[C@H]2C(=O)N(c3ccccc3)C(=O)N12 (stereo partly drawn) | > 100 µM | > 100 µM | > 100 µM | > 100 µM | > 100 µM | > 100 µM | > 100 µM | > 100 µM | > 100 µM | > 100 µM | > 100 µM | > 100 µM | > 100 µM | > 100 µM | – | – | – | – | – | –
COc1cc2c3c(c1OC)C(=O)C(=O)C1=C3N(CCC1)CC2 | > 100 µM | 35.3 µM | > 100 µM | > 100 µM | > 100 µM | 71.8 µM | > 100 µM | 56.3 µM | 72.2 µM | > 100 µM | > 100 µM | 92.1 µM | > 100 µM | 42 µM | – | – | – | – | – | –
